The values that follow come from paper PMC10469817, “A novel UHPLC‒MS/MS method for quantitative analysis of zanubrutinib in rat plasma: application to an in vivo interaction study between zanubrutinib and triazole antifungal” (BMC Chemistry, 2023).

Read-outs that look alike come from different tables or passages of the source.

Series [1] concerns CYP3A4. Details: method as in PMID 16205037, PMID 30477963. The conditions noted are these: cited from earlier work.
Series [2] is described as follows: DDI study: pharmacokinetics of zanubrutinib in rats alone or with fluconazole / isavuconazole. The class given is in vivo, Sprague–Dawley (SD) rats. The conditions noted are these: for AUC(0-inf) / AUC(0-t) / Cmax / Tmax / half-life / CL/F / MRT last / MRT inf / Vd/F: rat, plasma, po, zanubrutinib 30 mg/kg gavage, n = 6, mean ± SD; for CL/F: read-out: CLz/F (converted); for MRT last: read-out: MRT(0−t); for MRT inf: read-out: MRT(0−∞); for Vd/F: read-out: Vz/F; for time to peak: in h (unit assumed); for peak plasma concentration: in ng/mL; for area under the curve: in µg·h/L. On the procedure:
The separation procedures were processed using a Shim-pack velox C18 column (2.1 × 50 mm, 2.7 μm) at 40 degrees Celsius. The mobile phases were 0.1% formic acid-water and methanol. The gradient elution mode (each injection = 3 min) was applied as follows: the first 0-0.5 min was maintained at 10% methanol, followed by linearly increasing to 80% methanol (0.5–0.8 min) and keeping 80% methanol for 0.8–1.5 min. […] At the stage of the analysis process, the sample injection volume and flow rate were set as 2 µL and 0.4 mL/min, respectively.
Triple quadrupole mass spectrometry (Shimadzu Corp., Tokyo, Japan) was utilized for sample detection. The parameters for this procedure were set as follows: the detector voltage, heating block temperature, flow of atomizing gas, and drying gas were set as 4.5 kV, 400 °C, 3 L/min and 5 L/min, respectively. Multiple reaction monitoring (MRM) mode was performed to detect the precursor and product ions of the IS and analyte. The first and second signal strength product ions were applied to quantitation and qualification, respectively, to ensure the specificity of the detection. In addition, the retention times of the IS and analyte were also considered to further improve the detection specificity.
Eighteen SD rats were randomly split into three groups (Groups A-C). […] The same dose (0.5% CMC-Na) was administered to Group A (control group). After half an hour, each rat was treated with 30 mg/kg zanubrutinib. Thereafter, rat blood samples (0.3 mL) from the caudal vein at a series of time points (0.083, 0.5, 1, 2, 3, 4, 5, 6, 8, and 12 h) were collected in heparin tubes. The blood samples were centrifuged at 13,000 × g for 10 min at 4 °C, followed by separation of plasma and storage at -80 °C.
Prior to the experiment, the − 80 °C stored rat plasma samples were placed at room temperature for thawing. At the protein precipitation stage, 40 µL IS, 200 µL acetonitrile, and 100 µL plasma were collectively added to a 1.5 mL centrifuge tube, vortexed to mix thoroughly, and centrifuged at 12,000 × g for 10 min. Afterwards, 100 µL supernatant was transferred to a centrifuge tube and gently mixed with 100 µL ultrapure water for UHPLC–MS/MS analysis.

A short description of series [3]: Stability of zanubrutinib in rat plasma under different storage conditions. The series is classed as in vitro ADME. The conditions noted are these: for Stability in rat plasma, RE(%): n = 6. As for the experimental part: Under a series of storage conditions, each concentration of rat plasma QC samples (2, 40 and 800 ng/mL) was evaluated in 6 replicates to explore the stability of the method. This experiment determines the stabilities of the QC samples during analyses and different storage conditions. […] The testing results with RSD% (< 15%) and RE% (± 15%) were considered stable.

On the set-up of series [4]: method as in PMID 31340982. As to conditions: cited from earlier work.
On the set-up of series [5]: method as in PMID 31875923. The conditions noted are these: healthy volunteers, combined with itraconazole (CYP3A4 inhibitor); cited from earlier work.
The test system of series [6] is IL-2-induced kinase (ITK). Details: method as in PMID 31171645. As to conditions: compared to ibrutinib; cited from earlier work.
The subject of series [7] is BTK. Details: method as in PMID 31340982. The conditions noted are these: peripheral blood mononuclear cells (PBMCs) and peripheral lymph nodes in patients with B-cell lymphoma; cited from earlier work.
Series [8] has as its system CYP3A4. Details: method as in PMID 34252374. As to conditions: in vitro experiments; to phenoxy phenyl hydroxylation metabolites; cited from earlier work.
The mark [9] stands for this setting: Sprague-Dawley, 30 mg/kg, rats, Group A: the control group (0.5% CMC-Na).
Where [10] appears, read: Sprague-Dawley, 30 mg/kg, rats, Group B: 20 mg/kg isavuconazole.
Setting [11] is: Sprague-Dawley, 30 mg/kg, rats, Group C: 20 mg/kg fluconazole.
The mark [12] stands for this setting: rats, zanubrutinib (30 mg/kg) alone.
[13] abbreviates: rats, zanubrutinib (30 mg/kg) coadministered with fluconazole (20 mg/kg).
Setting [14] is: rats, zanubrutinib (30 mg/kg) coadministered with isavuconazole (20 mg/kg).
The mark [15] stands for this setting: single administration of 320 mg.

For `OC(Cn1cncn1)(Cn1cncn1)c1ccc(F)cc1F` [fluconazole], the CYP3A4 inhibition result in series [1] is “CYP3A4 enzyme inhibitors”.
As to `C[C@@H](c1nc(-c2ccc(C#N)cc2)cs1)[C@](O)(Cn1cncn1)c1cc(F)ccc1F` [isavuconazole], in series [2] (rats, 20 mg/kg antifungal by gavage half an hour before 30 mg/kg zanubrutinib), the “inhibitory effect on the metabolism of zanubrutinib” value is “obvious inhibitory effect”. In addition, in series [1], the CYP3A4 inhibition entry is “CYP3A4 enzyme inhibitors”.
The AUC(0-inf) is total exposure, with the tail of the curve extrapolated. Low values mean less exposure, high ones more exposure. Usually AUC(0-t) stands for exposure summed from dosing to a finite time, without extrapolation to infinity. The term Cmax denotes the peak of the concentration-time curve. Broadly, the Tmax is the time at which the peak concentration occurs. A word on the half-life: it is the time needed for the level to fall by half in the phase considered. In turn, `C=CC(=O)N1CCC([C@@H]2CCNc3c(C(N)=O)c(-c4ccc(Oc5ccccc5)cc4)nn32)CC1` [zanubrutinib] returned a concentration at 1 h in series [2] (Sprague-Dawley, 30 mg/kg, a rat plasma sample obtained 1 h after oral administration of zanubrutinib) of 0.23 µg/mL. The figures for the total exposure AUC(0-inf) in series [2] (setting [9]), in series [2] (setting [10]) and in series [2] (setting [11]) were 1.09 ± 0.0442 µg·h/mL, 1.27 ± 0.078 µg·h/mL and 1.73 ± 0.218 µg·h/mL, respectively. In addition, the AUC(0-t) was determined as 1.08 ± 0.0438 µg·h/mL in series [2] (setting [9]), 1.27 µg·h/mL in series [2] (setting [10]) and 1.72 ± 0.219 µg·h/mL in series [2] (setting [11]). Also, the Cmax amounted to 0.332 ± 0.0528 µg/mL in series [2] (setting [9]), 0.396 ± 0.0372 µg/mL in series [2] (setting [10]) and 0.495 ± 0.131 µg/mL in series [2] (setting [11]). The Tmax in series [2] (setting [9]) was determined as 1.83 ± 0.41 h; in series [2] (setting [10]), 2 h; in series [2] (setting [11]), 2.17 ± 0.41 h. In addition, the half-life in series [2] (setting [9]) is 1.34 ± 0.11 h; in series [2] (setting [10]) it was 1.42 ± 0.56 h; in series [2] (setting [11]), 1.37 ± 0.16 h. For the same compound, the CL/F is 27.7 L/h/kg in series [2] (setting [9]), 23.6 L/h/kg in series [2] (setting [10]) and 17.6 L/h/kg in series [2] (setting [11]). Moreover, the results for the MRT last in series [2] (setting [9]), in series [2] (setting [10]) and in series [2] (setting [11]) were 2.71 ± 0.1 h, 2.76 ± 0.07 h and 2.95 ± 0.14 h, respectively. Also, the MRT inf in series [2] (setting [9]) turned out to be 2.76 ± 0.09 h; in series [2] (setting [10]) it was 2.82 ± 0.09 h; in series [2] (setting [11]), 3 ± 0.14 h. Besides, the Vd/F in series [2] (setting [9]) is 53.2 ± 3.64 L/kg; in series [2] (setting [10]) it was 49 ± 21.1 L/kg; in series [2] (setting [11]), 34.8 ± 6.57 L/kg. In addition, the time to peak is recorded as 1.83 ± 0.41 in series [2] (setting [12]), 2.17 ± 0.41 in series [2] (setting [13]) and 2.00 ± 0.00 in series [2] (setting [14]). The figures for the peak plasma concentration in series [2] (setting [12]), in series [2] (setting [13]) and in series [2] (setting [14]) were 332.00 ± 52.79, 494.51 ± 130.68 and 396.05 ± 37.19, respectively. The “area under the curve” value is listed as 1081.67 ± 43.81 in series [2] (setting [12]), 1721.61 ± 219.36 in series [2] (setting [13]) and 1267.55 ± 79.35 in series [2] (setting [14]). The “Stability in rat plasma, RE(%)” value in series [3] (4 °C (24 h), 2 ng/mL) turned out to be 1.3%; in series [3] (4 °C (24 h), 40 ng/mL), 1.4%; in series [3] (4 °C (24 h), 800 ng/mL), 1.0%; in series [3] (-80 °C (long-term), 2 ng/mL), 2.5%; in series [3] (-80 °C (long-term), 40 ng/mL) it was 1.5%; in series [3] (-80 °C (long-term), 800 ng/mL), 4.0%. The “Stability in rat plasma, RE(%)” value in series [3] (Room temperature (4 h), 2 ng/mL) was -0.2%; in series [3] (Room temperature (4 h), 40 ng/mL), -1.4%; in series [3] (Room temperature (4 h), 800 ng/mL), -2.3%; in series [3] (Three freeze‒thaw, 2 ng/mL), -1.8%; in series [3] (Three freeze‒thaw, 40 ng/mL), 2.6%; in series [3] (Three freeze‒thaw, 800 ng/mL) it was -0.4%. Moreover, the “stability in plasma under the assessed storage conditions” value in series [3] (room temperature, 4 degrees Celsius refrigeration, freeze thawing, cryopreservation for long-term) was “stable”. Also, the “time of peak concentration (Tmax)” value in series [4] (patients with malignant lymphoma, oral administration) was “approximately 2 h”. Also, the “mean half-life (t1/2)” value in series [4] (setting [15]) was “approximately 4 h”. Besides, the “mean peak concentration (Cmax)” value in series [4] (setting [15]) was 0.658 µg/mL. Moreover, the “AUC increased to (combined with itraconazole)” value in series [5] is 143%. For the same compound, in series [5], the “Cmax increased to (combined with itraconazole)” value is 154%. Further, the “times lower at inhibiting IL-2-induced kinase (ITK) than ibrutinib” value in series [6] is on record as “more than 20 times”. The “efficacy of BTK inhibition” value in series [7] is given as ~100%. Further, in series [8], the “enzyme primarily metabolizing zanubrutinib” value is reported as “CYP3A4”.
